“And” between values parts separate entries of the source, which are not always exact repeats. Equal entries are not always repeated.
System: Erwinia amylovora 385
Assay: Reduction of the Erwinia amylovora population on apple blossom
Format: in vivo
Settings: 0.06% streptomycin; apple blossom cv. Gala; 10^6 bacteria/ml; sprayed one hour after inoculation; 6 days at 20 to 23° C.; tests 4 to 6
Method: 2. Testing the Reduction of the Erwinia amylovora Population on Apple Blossom
Test plants: Apple blossom cv. Gala
Apple blossom cv. Gala were used in the following tests. The trees had not been treated with plant protection compositions. The flowers were placed by the petiole into a 10% strength sucrose solution and incubated in a humid chamber. 24 flowers were employed per treatment and repletition, and the test was repeated in each case three times.
Pathogen: Erwinia amylovora 385 was grown on agar plates. The apple blossom was inoculated with a suspension of 10^6 bacteria/ml.
Plant Treatment Composition:
1 part by weight of a solid formulation comprising
63.75% by weight of calcium formate
18.75% by weight of citric acid
16.73% by weight of calcium chloride
0.77% by weight of wetting agent and anti-dust agent were dissolved in 50 parts by weight (P 2%) of tap water and the solution was used for the following treatment. The pH was 4.1.
To carry out the treatments, the blossom was sprayed with the respective solution one hour after the inoculation, the chamber was sealed, and the contents were incubated for 6 days at 20 to 23° C.
(1-3) Water as the control
(4-6) 0.06% streptomycin (for comparison)

[H]/N=C(/N)N[C@H]1[C@H](O)[C@@H](O)[C@H](O[C@@H]2O[C@@H](C)[C@](O)(C=O)[C@H]2O[C@@H]2O[C@@H](CO)[C@H](O)[C@@H](O)[C@@H]2NC)[C@@H](N/C(N)=N\[H])[C@@H]1O [streptomycin]
Efficacy: 84.6% and 89.5% and 95.5%

Reference: patent publication US20110165267A1, “AGENTS FOR TREATING AND/OR AVOIDING FIRE BLIGHT” (LANXESS DISTRIBUTION GMBH, priority 2008, published 2011)
